Laboratory results from ChEMBL document CHEMBL1909294, “Translating clinical findings into knowledge in drug safety evaluation--drug induced liver injury prediction system (DILIps)” (PLoS Comput Biol, 2011).

Tests used:
[1] = system: Hepatotoxicity
Description: Drug Induced Liver Injury Prediction System (DILIps) validation dataset; compound DILI positive/negative as observed in O'Brien data

[2] = system: Hepatotoxicity; remark: listed apart in the source
Description: Drug Induced Liver Injury Prediction System (DILIps) validation dataset; compound DILI positive/negative as observed in Pfizer data

[3] = system: Hepatotoxicity; remark: listed apart in the source
Description: Drug Induced Liver Injury Prediction System (DILIps) validation dataset; compound DILI positive/negative as observed in LTKB-BD

With `CC[C@]1(O)CC[C@H]2[C@@H]3CCC4=CCCC[C@@H]4[C@H]3CC[C@@]21C` the DILI positive/negative [1] was 1.

In the case of `CN(C)CCN(Cc1cccs1)c1ccccn1`, the DILI positive/negative [1] is reported as 1 and the DILI positive/negative [2] is reported as 1.

Work on `CCN(CC)Cc1cc(Nc2ccnc3cc(Cl)ccc23)ccc1O.Cl` yielded a DILI positive/negative ([1]; Liver) of 1.

In the case of `O=C(O)COc1ccc(C(=O)c2cccs2)c(Cl)c1Cl`, the DILI positive/negative [2] is reported as 1 and the DILI positive/negative [3] is reported as 1.

With `CC(=O)Nc1ccc(O)cc1` [ACETAMINOPHEN] the DILI positive/negative [1] was 1 and the DILI positive/negative [2] was 1.

Work on `CCCN(CCC)C(=O)Cc1c(-c2ccc(Cl)cc2)nc2ccc(Cl)cn12` [ALPIDEM] yielded a DILI positive/negative [2] of 1 and a DILI positive/negative [3] of 1.

Work on `Nc1ccc(C(=O)O)c(O)c1` [AMINOSALICYLIC ACID] yielded a DILI positive/negative [1] of 1, a DILI positive/negative [2] of 1 and a DILI positive/negative [3] of 1.

`CN(C)C(=O)Oc1cc(OC(=O)N(C)C)cc(C(O)CNC(C)(C)C)c1` (stereo unspecified) [BAMBUTEROL] was tested, and the DILI positive/negative [1] was 0 and the DILI positive/negative [2] was 0.

In the case of `CC(C(=O)O)c1ccc2oc(-c3ccc(Cl)cc3)nc2c1` (stereo unspecified) [BENOXAPROFEN], the DILI positive/negative [2] is reported as 1 and the DILI positive/negative [3] is reported as 1.

Work on `CCc1oc2ccccc2c1C(=O)c1cc(Br)c(O)c(Br)c1` [BENZBROMARONE] yielded a DILI positive/negative [2] of 1 and a DILI positive/negative [3] of 1.

Work on `O=C(O)CCCC[C@@H]1SC[C@@H]2NC(=O)N[C@@H]21` [BIOTIN] yielded a DILI positive/negative [1] of 0 and a DILI positive/negative [2] of 0.

In the case of `CC(=O)Oc1ccc(C(c2ccc(OC(C)=O)cc2)c2ccccn2)cc1` [BISACODYL], the DILI positive/negative [1] is reported as 0.

Work on `Nc1c(CC(=O)O)cccc1C(=O)c1ccc(Br)cc1` [BROMFENAC] yielded a DILI positive/negative [2] of 1 and a DILI positive/negative [3] of 1.

`C[C@@](Cc1ccc(O)c(O)c1)(NN)C(=O)O.O` [CARBIDOPA] gave a DILI positive/negative [1] of 0, a DILI positive/negative [2] of 0 and a DILI positive/negative [3] of 1.

Compound `O=C(O)c1cc(-c2ccccc2)nc2ccccc12` [CINCHOPHEN] has a DILI positive/negative [2] of 1 and a DILI positive/negative [3] of 1.

In the case of `CC(C)(Oc1ccc(C2CC2(Cl)Cl)cc1)C(=O)O` (stereo unspecified) [CIPROFIBRATE], the DILI positive/negative [1] is reported as 1 and the DILI positive/negative [2] is reported as 1.

In the case of `C[N+](C)(C)CCOP(=O)(O)OP(=O)([O-])OC[C@H]1O[C@@H](n2ccc(N)nc2=O)[C@H](O)[C@@H]1O` [CITICOLINE], the DILI positive/negative [1] is reported as 0 and the DILI positive/negative [2] is reported as 0.

With `CCOC(=O)C(C)(C)Oc1ccc(Cl)cc1` [CLOFIBRATE] the DILI positive/negative [1] was 1 and the DILI positive/negative [2] was 1.

Work on `COc1cc2c(c(OC)c1OC)-c1ccc(OC)c(=O)cc1[C@@H](NC(C)=O)CC2` [COLCHICINE] yielded a DILI positive/negative [1] of 1.

With `CCN(CC)C(=O)N1CCN(C)CC1` [DIETHYLCARBAMAZINE] the DILI positive/negative [1] was 1 and the DILI positive/negative [2] was 1.

`C[S+](C)[O-]` [DIMETHYL SULFOXIDE] was tested, and the DILI positive/negative [1] was 0.

Work on `NC(=O)OCC(COC(N)=O)c1ccccc1` [FELBAMATE] yielded a DILI positive/negative [1] of 1, a DILI positive/negative [2] of 1 and a DILI positive/negative [3] of 1.

Compound `O=c1[nH]c(=O)n([C@@H]2O[C@H](CO)[C@@H](O)[C@@H]2F)cc1I` [FIALURIDINE] has a DILI positive/negative [1] of 1, a DILI positive/negative [2] of 1 and a DILI positive/negative [3] of 1.

With `O=C(COc1ccc(Cl)cc1)N1CCN(Cc2ccc3c(c2)OCO3)CC1` [FIPEXIDE] the DILI positive/negative [2] was 1 and the DILI positive/negative [3] was 1.

`O=C1OCCN1/N=C/c1ccc([N+](=O)[O-])o1` [FURAZOLIDONE] gave a DILI positive/negative [1] of 1 and a DILI positive/negative [2] of 1.

`CC(=O)O[C@H]1C[C@@]2(C)[C@@H](C[C@@H](O)[C@H]3[C@@]4(C)CC[C@@H](O)[C@@H](C)[C@@H]4CC[C@@]32C)/C1=C(\CCC=C(C)C)C(=O)O` [FUSIDIC ACID] showed a DILI positive/negative [1] of 1.

`O=C(OCC(O)CO)c1ccccc1Nc1ccnc2cc(Cl)ccc12` (stereo unspecified) [GLAFENINE] gave a DILI positive/negative ([2]; Liver) of 1 and a DILI positive/negative ([3]; Liver) of 1.

For `CC(C)Cc1ccc(CC(=O)O)cc1` [IBUFENAC], the DILI positive/negative [2] was 1 and the DILI positive/negative [3] was 1.

`O[C@H]1[C@H](O)[C@@H](O)[C@H](O)[C@@H](O)[C@H]1O` [INOSITOL] showed a DILI positive/negative [1] of 0 and a DILI positive/negative [2] of 0.

Work on `CC(C)NNC(=O)c1ccncc1` [IPRONIAZID] yielded a DILI positive/negative [2] of 1 and a DILI positive/negative [3] of 1.

Work on `CC1=C(/C=C/C(C)=C/C=C/C(C)=C\C(=O)O)C(C)(C)CCC1` [ISOTRETINOIN] yielded a DILI positive/negative [1] of 1 and a DILI positive/negative [2] of 1.

Work on `C=C1c2cccc(O)c2C(=O)C2=C(O)[C@]3(O)C(=O)C(C(N)=O)=C(O)[C@@H](N(C)C)[C@@H]3[C@@H](O)[C@H]12` [METHACYCLINE] yielded a DILI positive/negative [1] of 1.

With `CC(=O)Oc1cc(C(C)C)c(OCCN(C)C)cc1C` [MOXISYLYTE] the DILI positive/negative [1] was 0 and the DILI positive/negative [3] was 1.

`CS(=O)(=O)Nc1ccc([N+](=O)[O-])cc1Oc1ccccc1` [NIMESULIDE] gave a DILI positive/negative ([1]; Liver) of 1, a DILI positive/negative ([2]; Liver) of 1 and a DILI positive/negative ([3]; Liver) of 1.

In the case of `CN1Cc2c(N)cccc2C(c2ccccc2)C1` (stereo unspecified) [NOMIFENSINE], the DILI positive/negative [2] is reported as 1 and the DILI positive/negative [3] is reported as 1.

`CO[C@@H]1[C@@H](OC(N)=O)[C@@H](O)[C@H](Oc2ccc3c(O)c(NC(=O)c4ccc(O)c(CC=C(C)C)c4)c(=O)oc3c2C)OC1(C)C` [NOVOBIOCIN] showed a DILI positive/negative [1] of 1 and a DILI positive/negative [2] of 1.

With `CC[N+](C)(CC)CCOC(=O)C(O)(c1ccccc1)C1CCCCC1` (stereo unspecified) [OXYPHENONIUM] the DILI positive/negative [1] was 0 and the DILI positive/negative [2] was 0.

`C#CCN(C)Cc1ccccc1` [PARGYLINE] showed a DILI positive/negative [1] of 0 and a DILI positive/negative [2] of 0.

Compound `C1CCC(C(CC2CCCCN2)C2CCCCC2)CC1` (stereo unspecified) [PERHEXILINE] has a DILI positive/negative [2] of 1 and a DILI positive/negative [3] of 1.

Compound `CCCCC1C(=O)N(c2ccccc2)N(c2ccccc2)C1=O` [PHENYLBUTAZONE] has a DILI positive/negative ([1]; Liver) of 1 and a DILI positive/negative ([2]; Liver) of 1.

Work on `CNC(=O)Oc1ccc2c(c1)[C@]1(C)CCN(C)[C@@H]1N2C` [PHYSOSTIGMINE] yielded a DILI positive/negative [1] of 0 and a DILI positive/negative [2] of 0.

Compound `COc1ccc(C(=O)NCc2cccnc2)cc1C(=O)NCc1cccnc1` [PICOTAMIDE] has a DILI positive/negative [1] of 0.

`CC(N/C(=N\C#N)Nc1ccncc1)C(C)(C)C` (stereo unspecified) [PINACIDIL ANHYDROUS] was tested, and the DILI positive/negative [1] was 0 and the DILI positive/negative [2] was 0.

In the case of `CC(C(=O)O)c1ccc(N2CC=CC2)c(Cl)c1` (stereo unspecified) [PIRPROFEN], the DILI positive/negative [2] is reported as 1 and the DILI positive/negative [3] is reported as 1.

`Cc1ncc(CO)c(CO)c1O` [PYRIDOXINE] gave a DILI positive/negative ([1]; Liver) of 0 and a DILI positive/negative ([2]; Liver) of 0.

Compound `CCN(CC)CCCC(C)Nc1c2ccc(Cl)cc2nc2ccc(OC)cc12` (stereo unspecified) [QUINACRINE] has a DILI positive/negative [1] of 1.

`C=C[C@H]1C[N@@]2CC[C@H]1C[C@H]2[C@H](O)c1ccnc2ccc(OC)cc12` [QUININE] showed a DILI positive/negative [1] of 1.

`Cc1nnc(NS(=O)(=O)c2ccc(N)cc2)s1` [SULFAMETHIZOLE] was tested, and the DILI positive/negative [1] was 1 and the DILI positive/negative [2] was 1.

With `Cc1cc(NS(=O)(=O)c2ccc(N)cc2)no1` [SULFAMETHOXAZOLE] the DILI positive/negative ([1]; Liver) was 1 and the DILI positive/negative ([3]; Liver) was 1.

For `Nc1ccc(S(=O)(=O)Nc2ccnn2-c2ccccc2)cc1` [SULFAPHENAZOLE], the DILI positive/negative [1] was 1.

`Cc1nc(C)c2c(n1)N(Cc1ccc(-c3ccccc3-c3nnn[nH]3)cc1)C(=O)CC2` [TASOSARTAN] showed a DILI positive/negative [2] of 1 and a DILI positive/negative [3] of 1.

`CC(C)(C)c1ccc(C(O)CCCN2CCC(C(O)(c3ccccc3)c3ccccc3)CC2)cc1` (stereo unspecified) [TERFENADINE] gave a DILI positive/negative [1] of 1 and a DILI positive/negative [2] of 0.

`Cc1ncc(C[n+]2csc(CCO)c2C)c(N)n1` [THIAMINE ION] was tested, and the DILI positive/negative ([1]; Liver) was 0 and the DILI positive/negative ([2]; Liver) was 0.

Compound `CCOC(=O)CN[C@@H](C(=O)N1CC[C@H]1C(=O)NCc1ccc(/C(N)=N\O)cc1)C1CCCCC1` [XIMELAGATRAN] has a DILI positive/negative [3] of 1.

Work on `CC(c1cc2ccccc2s1)N(O)C(N)=O` (stereo unspecified) [ZILEUTON] yielded a DILI positive/negative [1] of 1, a DILI positive/negative [2] of 1 and a DILI positive/negative [3] of 1.

Compound `CN(C)C/C=C(/c1ccc(Br)cc1)c1cccnc1` [ZIMELDINE] has a DILI positive/negative [3] of 1.

COLISTIMETHATE showed a DILI positive/negative [3] of 0.
